Where two headings read alike, the source gives them in different places.
Experiments:
[1] = Pharmacokinetics in specific populations; format: in vivo, human; settings: age 21-88 years, sex, race, body weight 36-132 kg, mild or moderate renal impairment, mild hepatic impairment
[2] = system: metastatic or surgically unresectable urothelial cancer harboring select FGFR genetic alterations; settings: for ORR, BIRC assessment / ORR, investigator assessment: chemotherapy-refractory patients in Regimen 3
From the text: The study comprises a Screening Phase (molecular screening at any time prior to first dose and study screening within 30 days of first dose), a treatment phase, and a post-treatment follow-up phase. The treatment phase comprises the period from first dose until the end-of-treatment visit. The follow-up phase extends until the subject has died, withdraws consent, is lost to follow-up, or the end of study, whichever comes first.
Included patients were adults with measurable urothelial cancer per Response Evaluation Criteria in Solid Tumors version 1.1.
Patients were required to have at least 1 FGFR2/FGFR3 mutation or fusion per central lab testing of RNA from formalin-fixed, paraffin-embedded tumor samples, using a custom reverse transcriptase polymerase chain reaction assay.
The primary end point of this study is Objective Response Rate to the selected regimen (Regimen 3).
Secondary end points include progression-free survival (PFS), response duration, Overall Survival, safety, response rate in biomarker-specific subgroups, and pharmacokinetics.
The study was designed to enroll 180 patients with specified FGFR alterations. Of these, ≥88 were required in the selected regimen. […] Responses were assessed by investigators and an independent radiological review committee. Progression-free survival and overall survival were estimated using Kaplan-Meier product limit method. Data from patients who were progression free and alive or with unknown status were censored at last tumor assessment. Efficacy end points were analysed at primary analysis cut-off.

[3] = Effect of food (high-fat and high-calorie meal) on pharmacokinetics in healthy subjects; format: in vivo, human
[4] = 187 patients with cancer; large effect i.e. >20 ms
[5] = Chemotherapy-refractory patients in Regimen 3 (N = 87)
[6] = Regimen 1, 10 mg intermittent (n = 33)
[7] = Regimen 2, 6 mg continuous (n = 78)
[8] = Regimen 3, of 97 patients with ≥1 postbaseline disease evaluation

Compound: COc1cc(OC)cc(N(CCNC(C)C)c2ccc3ncc(-c4cnn(C)c4)nc3c2)c1 [erdafitinib, N-(3,5-dimethoxy-phenyl)-N′-(1-methylethyl)-N-[3-(1-methyl-1H-pyrazol-4-yl)quinoxalin-6-yl]ethane-1,2-diamine]
- Trends in pharmacokinetics in specific populations [1]: No clinically meaningful trends
- Objective response rate per investigator assessment ([2]; 8 mg non-uptitrated continuous dose regimen, Regimen 3): (34.5) %
- Objective response rate per investigator assessment ([2]; 8 mg uptitrated to 9 mg continuous dose regimen, Regimen 3): (48.8) %
- Objective response rate per investigator assessment ([2]; Bone metastases, Regimen 1, 10 mg intermittent): (17) %
- Objective response rate per investigator assessment ([2]; Bone metastases, Regimen 2, 6 mg continuous): (40) %
- Objective response rate per investigator assessment ([2]; Bone metastases, Regimen 3, 8 mg continuous): (31.8) %
- Objective response rate per investigator assessment ([2]; Chemotherapy-naïve, Regimen 1, 10 mg intermittent): (25) %
- Objective response rate per investigator assessment ([2]; Chemotherapy-naïve, Regimen 2, 6 mg continuous): (0) %
- Objective response rate per investigator assessment ([2]; Chemotherapy-naïve, Regimen 3, 8 mg continuous): (41.7) %
- Complete response (CR), investigator assessment [2, 5]: 3.4%
- Partial response (PR), investigator assessment [2, 5]: 36.8%
- ORR, BIRC assessment ([2]; FGFR2 Fusion (N = 6)): 0%
- ORR, BIRC assessment ([2]; FGFR3 Fusion (N = 18)): 11.1%
- ORR, BIRC assessment ([2]; FGFR3 Point Mutation (N = 64)): 40.6%
- ORR, investigator assessment ([2]; FGFR3 Point Mutation (N = 64)): 48.4%
- ORR, investigator assessment ([2]; FGFR Fusion (N = 23)): 17.4%
- Objective response rate per investigator assessment ([2]; Liver metastases, Regimen 1, 10 mg intermittent): (27) %
- Objective response rate per investigator assessment ([2]; Liver metastases, Regimen 2, 6 mg continuous): (24) %
- Objective response rate per investigator assessment ([2]; Liver metastases, Regimen 3, 8 mg continuous): (35.0) %
- Objective response rate per investigator assessment ([2]; Lower tract disease, Regimen 1, 10 mg intermittent): (9) %
- Objective response rate per investigator assessment ([2]; Lower tract disease, Regimen 2, 6 mg continuous): (39) %
- Objective response rate per investigator assessment ([2]; Lower tract disease, Regimen 3, 8 mg continuous): (39.5) %
- Objective response rate per investigator assessment ([2]; Lung metastases, Regimen 1, 10 mg intermittent): (27) %
- Objective response rate per investigator assessment ([2]; Lung metastases, Regimen 2, 6 mg continuous): (41) %
- Objective response rate per investigator assessment ([2]; Lung metastases, Regimen 3, 8 mg continuous): (40.4) %
- Objective response rate per investigator assessment ([2]; Lymph node metastases only, Regimen 1, 10 mg intermittent): (0) %
- Objective response rate per investigator assessment ([2]; Lymph node metastases only, Regimen 2, 6 mg continuous): (67) %
- Objective response rate per investigator assessment ([2]; Lymph node metastases only, Regimen 3, 8 mg continuous): (33.3) %
- Objective response rate per investigator assessment ([2]; No. of lines of prior systemic therapy 0, Regimen 3, 8 mg continuous): (36.4) %
- Objective response rate per investigator assessment ([2]; No. of lines of prior systemic therapy 1, Regimen 3, 8 mg continuous): (37.8) %
- Objective response rate per investigator assessment ([2]; No. of lines of prior systemic therapy 2, Regimen 3, 8 mg continuous): (37.9) %
- Objective response rate per investigator assessment ([2]; No. of lines of prior systemic therapy 3, Regimen 3, 8 mg continuous): (60.0) %
- Objective response rate per investigator assessment ([2]; No. of lines of prior systemic therapy ≥4, Regimen 3, 8 mg continuous): (50.0) %
- Objective response rate per investigator assessment ([2]; Progressed or relapsed after chemotherapy, Regimen 1, 10 mg intermittent): (21) %
- Objective response rate per investigator assessment ([2]; Progressed or relapsed after chemotherapy, Regimen 2, 6 mg continuous): (37) %
- Objective response rate per investigator assessment ([2]; Progressed or relapsed after chemotherapy, Regimen 3, 8 mg continuous): (40.2) %
- Median progression-free survival per investigator assessment ([2]; Regimen 1): 4.8 months
- Overall survival rate at 12 months ([2]; Regimen 1): 31%
- Progression-free survival rate at 12 months ([2]; Regimen 1): 18%
- Complete response per investigator assessment [2, 6]: 1 no.
- Median time to response [2, 6]: 1.4 mo
- Median overall survival ([2]; Regimen 1, median follow-up 22.9 months): 7.5 months
- Median progression-free survival per investigator assessment ([2]; Regimen 2): 5.3 months
- Overall survival rate at 12 months ([2]; Regimen 2): 33%
- Progression-free survival rate at 12 months ([2]; Regimen 2): 11%
- Complete response per investigator assessment [2, 7]: 3 no.
- Median time to response [2, 7]: 1.4 mo
- Median overall survival ([2]; Regimen 2, median follow-up 18.5 months): 8.6 months
- Responses maintained for >12 months ([2]; Regimen 3): roughly 30%
- Survival rate at 12 months ([2]; Regimen 3): 55%
- Median time to response ([2]; Regimen 3, 8 mg continuous (n = 99)): 1.4 mo
- Median progression-free survival ([2]; Regimen 3, 8 mg per day continuous (FIG. 5A)): 5.5 months
- Median overall survival ([2]; Regimen 3, 8 mg per day continuous (FIG. 5B)): 13.8 months
- Patients who responded ([2]; Regimen 3, FGFR3-TACC3 V1 fusion (n=11)): 36.4%
- Disease stabilization lasting >6 months ([2]; Regimen 3, among 39 patients with stable disease): 33%
- Additional patients with stable disease ([2]; Regimen 3, patients with FGFR mutations (n=74)): 26 patients
- Progression-free survival rate at 12 months ([2]; Regimen 3, per investigator assessment): 19%
- Patients with maximum tumor reduction between 30% and 100% [2, 8]: 49%
- Patients with reduction in sum of target lesion diameters [2, 8]: 77%
- Objective response rate per investigator assessment ([2]; Upper tract disease, Regimen 1, 10 mg intermittent): (46) %
- Objective response rate per investigator assessment ([2]; Upper tract disease, Regimen 2, 6 mg continuous): (23) %
- Objective response rate per investigator assessment ([2]; Upper tract disease, Regimen 3, 8 mg continuous): (43.5) %
- Objective response rate per investigator assessment ([2]; With FGFR2/3 fusions, Regimen 1, 10 mg intermittent): (0) %
- Objective response rate per investigator assessment ([2]; With FGFR2/3 fusions, Regimen 2, 6 mg continuous): (17) %
- Objective response rate per investigator assessment ([2]; With FGFR3 mutations, Regimen 1, 10 mg intermittent): (22) %
- Objective response rate per investigator assessment ([2]; With FGFR3 mutations, Regimen 2, 6 mg continuous): (36) %
- Objective response rate per investigator assessment ([2]; With visceral metastases, Regimen 1, 10 mg intermittent): (29) %
- Objective response rate per investigator assessment ([2]; With visceral metastases, Regimen 2, 6 mg continuous): (32) %
- Objective response rate per investigator assessment ([2]; With visceral metastases, Regimen 3, 8 mg continuous): (38.5) %
- Objective response rate per investigator assessment ([2]; Without visceral metastases, Regimen 1, 10 mg intermittent): (0) %
- Objective response rate per investigator assessment ([2]; Without visceral metastases, Regimen 2, 6 mg continuous): (42) %
- Objective response rate per investigator assessment ([2]; Without visceral metastases, Regimen 3, 8 mg continuous): (47.6) %
- Effect of food on erdafitinib pharmacokinetics [3]: No clinically meaningful differences
- Effect on the QTc interval [4]: no large effect

Source: patent US20220175768A1, “FGFR TYROSINE KINASE INHIBITORS FOR THE TREATMENT OF UROTHELIAL CARCINOMA” (Janssen Pharmaceutica NV, priority 2019, published 2022)
